Results taken from US5043353A, “A80789 polyether antibiotic” (Eli Lilly and Company, priority 1989, dated 1991).
Converted amounts (≈) assume the structure as drawn. Positions of bridges follow the written chain, without caps; N, C: chain ends. Non-standard residues stand in square brackets, D forms with d. Residues, ends and D or L forms follow the SMILES beside them. *: point of attachment. Ileψ(thiazoline)Cys = CC[C@H](C)[C@H](N)C1=N[C@H](C(=O)*)CS1; dOrn = NCCC[C@@H](N)C(=O)O

What was measured:
coccidiosis = details: alone; Science, 122: 244 (1955); cited from earlier work
Pseudorabies virus = assay: microbe, parasite or virus in culture; assay type: cell-based; details: Suid alphaherpesvirus 1, read-out: level at which active
Great Lakes influenza = assay: microbe, parasite or virus in culture; assay type: cell-based; details: read-out: level at which active
Vaccina = assay: microbe, parasite or virus in culture; assay type: cell-based; details: tissue-culture tests; read-out: level at which active
[1] = test system: Fusobacterium necrophorum 6054A; assay: Standard agar-dilution assay, MIC (anaerobic bacteria); assay type: cell-based; details: 24-hour incubation
Procedure: (§1) The A80789 compounds have antibacterial and anticoccidial activity. A80789 compounds are especially active against anaerobic bacteria. The minimal inhibitory concentrations (MIC's) at which A80789 inhibits various bacteria, as determined by standard agar-dilution assays, are summarized in Tables III and IV. End points were read after 24-hour incubation.

Peptococcus prevoti 1281 = assay: as above; assay type: cell-based; details: 24-hour incubation
Procedure: as §1

[2] = test system: Clostridium difficile 2994; assay: as above; assay type: cell-based; details: Clostridioides difficile, 24-hour incubation
Procedure: as §1

[3] = test system: Peptococcus asaccharolyticus 1302; assay: as above; assay type: cell-based; details: Peptoniphilus asaccharolyticus, 24-hour incubation
Procedure: as §1

[4] = test system: Fusobacterium symbiosum 1470; assay: as above; assay type: cell-based; details: 24-hour incubation
Procedure: as §1

[5] = test system: Peptostreptococcus anaerobius 1428; assay: as above; assay type: cell-based; details: 24-hour incubation
Procedure: as §1

[6] = test system: Bacteroides thetaiotaomicron 1438; assay: as above; assay type: cell-based; details: 24-hour incubation
Procedure: as §1

[7] = test system: Clostridium septicum 1128; assay: as above; assay type: cell-based; details: 24-hour incubation
Procedure: as §1

[8] = test system: Bacteroides melaninogenicus 2736; assay: as above; assay type: cell-based; details: 24-hour incubation
Procedure: as §1

[9] = test system: Peptostreptococcus intermedius 1264; assay: as above; assay type: cell-based; details: 24-hour incubation
Procedure: as §1

[10] = test system: Bacteroides vulgatis 1211; assay: as above; assay type: cell-based; details: 24-hour incubation
Procedure: as §1

[11] = test system: Bacteroides fragilis 1936B; assay: as above; assay type: cell-based; details: 24-hour incubation
Procedure: as §1

Bacteroides fragilis 111 = assay: as above; assay type: cell-based; details: 24-hour incubation
Procedure: as §1

[12] = test system: Bacteroides corredens 1874; assay: as above; assay type: cell-based; details: 24-hour incubation
Procedure: as §1

[13] = test system: Bacteroides fragilis 1877; assay: as above; assay type: cell-based; details: 24-hour incubation
Procedure: as §1

[14] = test system: Eubacterium aerofaciens 1235; assay: as above; assay type: cell-based; details: Collinsella aerofaciens, 24-hour incubation
Procedure: as §1

[15] = test system: Propionibacterium acnes 79; assay: as above; assay type: cell-based; details: Cutibacterium acnes, 24-hour incubation
Procedure: as §1

[16] = test system: Bacteroides melaninogenicus 1856/28; assay: as above; assay type: cell-based; details: Prevotella intermedia, 24-hour incubation
Procedure: as §1

HSV II = assay: microbe, parasite or virus in culture; assay type: cell-based, Herpes (HSV II); details: tissue-culture tests; read-out: level at which active
[17] = test system: Clostridium perfringens 81; assay: microbe, parasite or virus in culture; assay type: cell-based; details: Clostridium perfringens, 81, 24 h
Rhino viruses = assay: microbe, parasite or virus in culture; assay type: cell-based; details: tissue-culture tests; read-out: level at which active
Solubility = assay type: physicochemical; details: free acid form
[18] = test system: Haemophilus influenzae 76; assay: Standard agar-dilution assay, MIC; assay type: cell-based; details: 24-hour incubation
Procedure: as §1

[19] = test system: Staphylococcus epidermidis 222; assay: Standard agar-dilution assay, MIC; assay type: cell-based; details: 24-hour incubation
Procedure: as §1

Klebsiella sp. = assay: Standard agar-dilution assay, MIC; assay type: cell-based; details: 24-hour incubation
Procedure: as §1

[20] = test system: Pseudomonas aeruginosa X239; assay: Standard agar-dilution assay, MIC; assay type: cell-based; details: 24-hour incubation
Procedure: as §1

[21] = test system: Enterobacter aerogenes EB17; assay: Standard agar-dilution assay, MIC; assay type: cell-based; details: Klebsiella aerogenes, 24-hour incubation
Procedure: as §1

Shigella sonnei = assay: Standard agar-dilution assay, MIC; assay type: cell-based; details: 24-hour incubation
Procedure: as §1

[22] = test system: Staphylococcus aureus X1.1; assay: Standard agar-dilution assay, MIC; assay type: cell-based; details: 24-hour incubation
Procedure: as §1

[23] = test system: Pseudomonas aeruginosa PS72; assay: Standard agar-dilution assay, MIC; assay type: cell-based; details: 24-hour incubation
Procedure: as §1

[24] = test system: Streptococcus pyogenes C203; assay: Standard agar-dilution assay, MIC; assay type: cell-based; details: 24-hour incubation
Procedure: as §1

[25] = test system: Streptococcus faecalis 2041; assay: Standard agar-dilution assay, MIC; assay type: cell-based; details: 24-hour incubation, reclassified as Enterococcus faecalis 2041
Procedure: as §1

Salmonella sp = assay: Standard agar-dilution assay, MIC; assay type: cell-based; details: 24-hour incubation
Procedure: as §1

[26] = test system: Pseudomonas aeruginosa PS18; assay: Standard agar-dilution assay, MIC; assay type: cell-based; details: 24-hour incubation
Procedure: as §1

[27] = test system: Pseudomonas aeruginosa X528; assay: Standard agar-dilution assay, MIC; assay type: cell-based; details: 24-hour incubation
Procedure: as §1

[28] = test system: Streptococcus faecium X66; assay: Standard agar-dilution assay, MIC; assay type: cell-based; details: 24-hour incubation, reclassified as Enterococcus faecium X66
Procedure: as §1

[29] = test system: Enterobacter aerogenes C32; assay: Standard agar-dilution assay, MIC; assay type: cell-based; details: Klebsiella aerogenes, 24-hour incubation
Procedure: as §1

Escherichia coli TEM = assay: Standard agar-dilution assay, MIC; assay type: cell-based; details: 24-hour incubation
Procedure: as §1

Proteus sp. = assay: Standard agar-dilution assay, MIC; assay type: cell-based; details: 24-hour incubation
Procedure: as §1

[30] = test system: Staphylococcus aureus S13E; assay: Standard agar-dilution assay, MIC; assay type: cell-based; details: 24-hour incubation
Procedure: as §1

Serratia marcescens X99 = assay: Standard agar-dilution assay, MIC; assay type: cell-based; details: 24-hour incubation
Procedure: as §1

[31] = test system: Haemophilus influenzae C.L.; assay: Standard agar-dilution assay, MIC; assay type: cell-based; details: 24-hour incubation
Procedure: as §1

[32] = test system: Staphylococcus epidermidis Epi 1; assay: Standard agar-dilution assay, MIC; assay type: cell-based; details: EPI1, 24-hour incubation
Procedure: as §1

[33] = test system: Streptococcus pneumoniae Park 1; assay: Standard agar-dilution assay, MIC; assay type: cell-based; details: PARK1, 24-hour incubation
Procedure: as §1

[34] = test system: Staphylococcus aureus X400; assay: Standard agar-dilution assay, MIC; assay type: cell-based; details: 24-hour incubation
Procedure: as §1

Escherichia coli N10 = assay: Standard agar-dilution assay, MIC; assay type: cell-based; details: 24-hour incubation
Procedure: as §1

Escherichia coli EC14 = assay: Standard agar-dilution assay, MIC; assay type: cell-based; details: 24-hour incubation
Procedure: as §1

[35] = test system: Staphylococcus aureus V41; assay: Standard agar-dilution assay, MIC; assay type: cell-based; details: 24-hour incubation
Procedure: as §1

Para influenza = assay: microbe, parasite or virus in culture; assay type: cell-based; details: read-out: level at which active
HSV I = assay: microbe, parasite or virus in culture; assay type: cell-based, Herpes (HSV I); details: read-out: level at which active
Eimeria acervulina = assay: Feeding experiments in infected chicks; assay type: in vivo; details: in the feed of young chickens; chicks infected with Eimeria acervulina
adult housefly = assay: Insecticidal activity; assay type: in vivo
Text: The A80789 compounds are also useful as insecticides. For example, A80789 is active against adult housefly at levels as low as 100 ppm.

Culture A80789 = assay: Antibiotic sensitivity disc test on the producing culture; assay type: cell-based, Streptomyces hygroscopicus; details: ISP No. 2 agar
Procedure: Resistance to antibiotics was measured by padding antibiotic sensitivity discs onto the surface of seeded ISP No. 2 agar plates. Resistance was scored as (+) when no zone of inhibition was observed and as (-) when a zone of inhibition was observed.

## O=C(Nc1ccc([N+](=O)[O-])cc1)Nc1ccc([N+](=O)[O-])cc1 [4,4'-dinitrocarbanilide]
coccidiosis
  anticoccidial activity: exhibits anticoccidial activity

## COC1CCC(OC2C(C)C3(OC(CC4OC(O)(C(C)C(=O)O)C(C)C(OC)C4C)CC(OC)C3C)OC2(C)C2CCC(C3CCC(C4OC(C)(O)C(C)CC4C)O3)O2)OC1C (centres unmarked) [A80789]
Pseudorabies virus
  minimal effective concentration: < 0.078 µg/mL
Great Lakes influenza
  minimal effective concentration: 2000 µg/mL
Vaccina
  minimal effective concentration: 2000 µg/mL
[1]
  MIC: 2 mg/L (≈ 2.26 µM)
Peptococcus prevoti 1281
  MIC: 0.125 mg/L (≈ 0.141 µM)
[2]
  MIC: 0.5 mg/L (≈ 0.565 µM)
[3]
  MIC: ≤ 0.03 mg/L
[4]
  MIC: 2 mg/L (≈ 2.26 µM)
[5]
  MIC: 0.25 mg/L (≈ 0.282 µM)
[6]
  MIC: 128 mg/L (≈ 145 µM)
[7]
  MIC: 0.5 mg/L (≈ 0.565 µM)
[8]
  MIC: 8 mg/L (≈ 9.04 µM)
[9]
  MIC: 0.125 mg/L (≈ 0.141 µM)
[10]
  MIC: 1 mg/L (≈ 1.13 µM)
[11]
  MIC: 8 mg/L (≈ 9.04 µM)
Bacteroides fragilis 111
  MIC: 8 mg/L (≈ 9.04 µM)
[12]
  MIC: 8 mg/L (≈ 9.04 µM)
[13]
  MIC: 8 mg/L (≈ 9.04 µM)
[14]
  MIC: 0.5 mg/L (≈ 0.565 µM)
[15]
  MIC: 0.25 mg/L (≈ 0.282 µM)
[16]
  MIC: 4 mg/L (≈ 4.52 µM)
HSV II
  minimal effective concentration: 2000 µg/mL
[17]
  MIC: 0.5 mg/L (≈ 0.565 µM)
Rhino viruses
  minimal effective concentration: 2000 µg/mL
Solubility; in water
  Solubility: Insoluble
Solubility; lower alcohols such as methanol, acetone, ethyl acetate, chloroform, diethyl ether, benzene, toluene, warm hexane
  Solubility: soluble
[18]
  MIC: > 128 mg/L
[19]
  MIC: 0.125 mg/L (≈ 0.141 µM)
Klebsiella sp.
  MIC: > 128 mg/L
[20]
  MIC: > 128 mg/L
[21]
  MIC: > 128 mg/L
Shigella sonnei
  MIC: > 128 mg/L
[22]
  MIC: 0.25 mg/L (≈ 0.282 µM)
[23]
  MIC: > 128 mg/L
[24]
  MIC: 0.03 mg/L (≈ 0.0339 µM)
[25]
  MIC: > 128 mg/L
Salmonella sp
  MIC: > 128 mg/L
[26]
  MIC: > 128 mg/L
[27]
  MIC: > 128 mg/L
[28]
  MIC: > 128 mg/L
[29]
  MIC: > 128 mg/L
Escherichia coli TEM
  MIC: > 128 mg/L
Proteus sp.
  MIC: > 128 mg/L
[30]
  MIC: 0.25 mg/L (≈ 0.282 µM)
Serratia marcescens X99
  MIC: > 128 mg/L
[31]
  MIC: > 128 mg/L
[32]
  MIC: 0.25 mg/L (≈ 0.282 µM)
[33]
  MIC: 0.03 mg/L (≈ 0.0339 µM)
[34]
  MIC: 0.25 mg/L (≈ 0.282 µM)
Escherichia coli N10
  MIC: > 128 mg/L
Escherichia coli EC14
  MIC: > 128 mg/L
[35]
  MIC: 0.25 mg/L (≈ 0.282 µM)
Para influenza
  minimal effective concentration: 2000 µg/mL
HSV I
  minimal effective concentration: 2000 µg/mL
Eimeria acervulina
  level in feed (as low as) that caused a reduction in the number of lesions: 100 ppm
Adult housefly
  level (as low as) at which active: 100 ppm

## CC[C@H](C)[C@H](N)C1=N[C@H](C(=O)N[C@@H](CC(C)C)C(=O)N[C@H](CCC(=O)O)C(=O)N[C@H](C(=O)N[C@H]2CCCCNC(=O)[C@H](CC(N)=O)NC(=O)[C@@H](CC(=O)O)NC(=O)[C@H](Cc3cnc[nH]3)NC(=O)[C@@H](Cc3ccccc3)NC(=O)[C@H]([C@@H](C)CC)NC(=O)[C@@H](CCCN)NC2=O)[C@@H](C)CC)CS1 [bacitracin] ({Ileψ(thiazoline)Cys}-L[dE]IK[dOrn]I[dF]H[dD]N; lactam 4-C)
Culture A80789; disc 10 units
  Resistance of culture to antibiotic: sensitive

## CC(=O)OCC1=C(C(=O)O)N2C(=O)[C@@H](NC(=O)Cc3cccs3)[C@H]2SC1 [cephalothin]
Culture A80789; disc 30 mcg
  Resistance of culture to antibiotic: sensitive

## CCC[C@@H]1C[C@@H](C(=O)N[C@@H]([C@H]2O[C@H](SC)[C@H](O)[C@@H](O)[C@H]2O)[C@@H](C)O)N(C)C1 [lincomycin]
Culture A80789; disc 2 mcg
  Resistance of culture to antibiotic: resistant

## CO[C@H]1C[C@H](O[C@H]2[C@H](C)[C@@H](O[C@@H]3O[C@H](C)C[C@H](N(C)C)[C@H]3O)[C@@H](C)C[C@@]3(CO3)C(=O)[C@H](C)[C@@H](O)[C@@H](C)[C@@H](C)OC(=O)[C@@H]2C)O[C@@H](C)[C@@H]1O [oleandomycin]
Culture A80789; disc 15 mcg
  Resistance of culture to antibiotic: sensitive

## CC1(C)S[C@@H]2[C@H](NC(=O)Cc3ccccc3)C(=O)N2[C@H]1C(=O)O [penicillin G]
Culture A80789; disc 10 units
  Resistance of culture to antibiotic: resistant
